Data set [1] relates to malarial strain W2 (pyrimethamine and chloroquine-resistant). In words: in vitro antimalarial activity against multidrug resistant strain W2. Conditions: Plasmodium falciparum, read-out: EC50 W2 (nM). The format is cell-based, P. falciparum.
For data set [2], the system named is malarial strain TM90-C2B (mefloquine, chloroquine, atovaquone, and pyrimethamine-resistant). In words: microbe, parasite or virus in culture. Format: cell-based, P. falciparum. Conditions: Plasmodium falciparum, TM90, read-out: EC50 TM90-C2B (nM). The source says: Ideally, the RI of a compound should lie between 0.3 and 3.0 in order to avoid rapidly inducing resistance in the parasite. […]

In data set [3] the test system is P. berghei sporozoites expressing luciferase. Description: in vitro liver stage activity, luciferase sporozoites infecting HEPG2 hepatoma cells. To be noted: Plasmodium berghei, HEPG2 cells. Format: cell-based.
For a further data set, the system named is J774 mammalian cells. Description: cytotoxicity to J774 cells. Conditions: Mus musculus, J774, read-out: EC50 J774 (μM). Format: cell-based. Here is the method: This allowed a simplified method for comparing the different assays being simultaneously run. Additionally, each compound was also tested for cytotoxicity using mammalian J774 cell lines in a 96-well plate format.^12-14, 16

The nature of data set [4]: aqueous solubility (LC/MS- or HPLC-based assay). Format: physicochemical. In outline: (§1)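 Aqueous solubility and log D (pH 7.4) determined by LC/MS-based assays; solubility examined at more than one pH.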
The nature of data set [5]: lipophilicity log D at pH 7.4. The format is physicochemical. To be noted: octanol/water. An outline of the steps:
as §1

A further data set relates to Pb-infected mice. In words: in vivo efficacy scouting assay against blood stages. More on the design: species or system P. berghei; mice. To be noted: for inhibition in vivo at 50 mg/kg: Plasmodium berghei, po, 144 h, read-out: % Inhibition Day 6 PI; for activities in these scout assays / % Inhibition Day 3 PI / % Inhibition Day 6 PI: single oral 50 mg/kg dose 1 day PI; for activities in these scout assays: result in words; for % Inhibition Day 3 PI / % Inhibition Day 6 PI: vs untreated animals. Here is the method:
The screening involved a single oral 50 mg/kg dose 1 day post infection (PI) and an assessment of parasitemia on days 3 PI and 6 PI (Table 6).
The screening was performed by treating two infected mice with a single 50 mg/kg oral dose of test compound suspended in PEG400 on day 1 postexposure (PE) followed by assessing parasitemia on days 3 and 6 PE.

The next data set has as its system P. berghei-GFP parasites. In words: modified Thompson test. The format is in vivo, P. berghei; mice. Conditions: for No. of Cures: survival to day 30 PI with parasitemia <1%. As to the method: Mice were infected with 1×10^6 P. berghei-GFP parasites and compounds were dosed orally on days 3, 4 and 5 PI with a dose of 10 mg/kg of compound suspended or dissolved in HEC/Tween or PEG 400. Parasitemia was observed by flow cytometry on days 3, 6, 9, 13, 21, and 30 PI. Compounds with animal survival up to day 30 PI and parasitemia levels of less than 1% on day 30 PI were considered to be cures. Lastly, animals with more than 40% parasitemia levels were euthanized.
On days 3, 6, 9, 13, 21, and 30 PE, parasitemia was monitored by Giemsa-stained blood smears. Both compounds were evaluated by the reduction of parasitemia on day 6 PE and the survival up to day 30 PE.

For data set [6], the target named is P. berghei sporozoites expressing luciferase. To be noted: previous work; read-out: liver stage activity; cited from earlier work.
The subject of data set [7] is malarial strain TM90-C2B (mefloquine, chloroquine, atovaquone, and pyrimethamine-resistant). Conditions: previous work; cited from earlier work.
The mark [8] stands for this setting: 10 mg/kg oral on days 3, 4 and 5 PI.

We go through three compounds from patent publication US10000452B1, “Quinolone-based compounds, formulations, and uses thereof” (University of South Florida, priority 2016, dated 2018).

In brackets after ≈: the same amount, converted by molar mass. Several values for one entry are separate records, joined by “and”; a condition that tells them apart may be missing. Equal values may be shown once. Read-outs that look alike come from different tables or passages of the source.

In general, solubility refers to how much of the substance goes into solution per volume. What is called chromatographic logD is lipophilicity estimated from chromatographic retention. For `Cc1[nH]c2cc(CN3CCN(c4ccc(F)cc4)CC3)ccc2c(=O)c1Br` [Compound 8an, 3-Bromo-7-((4-(4-fluorophenyl)piperazin-1-yl)methyl)-2-methylquinolin-4(1H)-one], the EC50 in [1] was 25.1 nM. Moreover, the EC50 in [2] is 25.5 nM. In data set [3], this compound displayed an EC50 of 26.2 nM. Moreover, the EC50 with J774 mammalian cells was over 20 µM. Also, the solubility in data set [4] (aqueous solution (buffer not named), pH 2, simulated gastric fluid, pH 2.0, read-out: Solubility pH 2.0) is at least 80 µM. In addition, the solubility in data set [4] (aqueous solution (buffer not named), pH 6.5, aqueous buffer, pH 6.5, read-out: Solubility pH 6.5) was 1 to 19.9 µM (≈ 0.43 to 8.56 µg/mL). Further, the chromatographic logD in [5] came out at 2.83. Also, in the data set with Pb-infected mice, the inhibition in vivo at 50 mg/kg is over 85%, the “activities in these scout assays” value is “excellent activities”, the “% Inhibition Day 3 PI” value is listed as “full inhibition” and the “% Inhibition Day 6 PI” value is reported as “completely inhibited parasite growth”. Moreover, in the data set with P. berghei-GFP parasites (setting [8]), the “Avg. Day of Death” value came out at 13 and the “No. of Cures” value is 0/5. The inhibition in vivo at 10 mg/kg in the data set with P. berghei-GFP parasites (Plasmodium berghei, in Mus musculus, 144 h, 10 mg/kg oral on days 3, 4 and 5 PI, vs untreated control animals, read-out: % Inhibition Day 6 PI) was 90.9%.

Regarding `COC(=O)c1c[nH]c2cc(CN3CCN(c4ccc(C(F)(F)F)cc4)CC3)c(OC)cc2c1=O` [Compound 8ab, Methyl 6-methoxy-4-oxo-7-((4-(4-(trifluoromethyl)phenyl)piperazin-1-yl)methyl)-1,4-dihydroquinoline-3-carboxylate], the EC50 in data set [1] is 6.42 nM. For the same compound, the EC50 in [3] is 9.58 nM. Also, the EC50 in the data set with J774 mammalian cells is over 20 µM. In addition, the solubility in data set [4] (aqueous solution, pH 2, simulated gastric fluid, pH 2.0, read-out: Solubility pH 2.0) was 1 to 19.9 µM (≈ 0.475 to 9.46 µg/mL). Besides, the solubility in [4] (aqueous solution, pH 6.5, aqueous buffer, pH 6.5, read-out: Solubility pH 6.5) was 1 to 19.9 µM (≈ 0.475 to 9.46 µg/mL). For the same compound, in data set [5], the chromatographic logD was 1.29. Moreover, in the data set with Pb-infected mice, the inhibition in vivo at 50 mg/kg is over 85%, the “activities in these scout assays” value is on record as “excellent activities”, the “% Inhibition Day 3 PI” value was “full inhibition” and the “% Inhibition Day 6 PI” value is recorded as “completely inhibited parasite growth”. For the same compound, the “No. of Cures” value in the data set on P. berghei-GFP parasites (setting [8]) was 3 of the 5 and 3/5.

In the case of `CCCCc1cc2c(=O)c(Br)c(C)[nH]c2cc1OCCOc1ccccc1` [Compound 16c, 3-Bromo-6-butyl-2-methyl-7-(2-phenoxyethoxy)quinolin-4(1H)-one], the EC50 in [1] was 2.6 nM; in [2], 12.2 nM; in data set [6], 2.12 nM. The “fold more soluble in comparison to 6b” value in data set [4] (Example 2) is reported as “approximately 10”. Also, the “% inhibition on day 6 PE” value in the data set on Pb-infected mice (Example 2: two mice, single 50 mg/kg oral dose in PEG400 on day 1 PE) was found to be 49.5%; with P. berghei-GFP parasites (Example 2: 10 mg/kg oral days 3, 4, 5 in HEC/Tween, Giemsa-stained smears), 61%. The “day mice were sacrificed” value with P. berghei-GFP parasites (Example 2: 10 mg/kg oral days 3, 4, 5, controls sacrificed day 13) turned out to be 13. Besides, the “resistance index (RI)” value in data set [7] was 4.69.
